Patent US10517926B2, “Oligopeptide having proinflammatory cytokine secretion-inhibiting activity” (Osaka University, priority 2015, dated 2019)

Columns and labels:
[1] = tested on: osteoclast precursor cells; test: Osteoclast differentiation, Osteoclast Culture Kit (TRAP and nuclear staining); assay type: cell-based
Procedure: Osteoclast Culture Kit V-2 (OSC33, produced by Cosmo Bio Co., Ltd.) was used. According to the manual of the kit, culture of osteoclast precursor cells was started in the presence of M-CSF (final concentration: 50 ng/ml) in the A and B groups, and in the presence of M-CSF (final concentration: 50 ng/ml) and MHP1 (final concentration: 30, 50, or 100 μg/ml) in the C and D groups. Thereafter, 24 hours to 7 days after the start of culture, the A group was cultured in the presence of M-CSF (final concentration: 50 ng/ml), the B group was cultured in the presence of M-CSF (final concentration: 50 ng/ml) and RANKL protein (final concentration: 50 ng/ml), the C group was cultured in the presence of M-CSF (final concentration: 50 ng/ml) and MHP1 (final concentration: 30, 50, or 100 μg/ml), and the D group was cultured in the presence of M-CSF (final concentration: 50 ng/ml), RANKL protein (final concentration: 50 ng/ml), and MHP1 (final concentration: 30, 50, or 100 μg/ml). After culture, the cells were subjected to TRAP staining and nuclear staining according to a standard method.

MG6 cells [2] = test: Stability of RANKL peptide: activity after storage in water; assay type: cell-based, mouse; details: 2 mg/ml in water, 4° C., 208 days
Procedure: (§1) MG6 cells (mouse-derived microglial cell line) were cultured in a DMEM medium (+4% FBS) containing MHP1 or MHP2 (final concentration: 50 or 100 μg/ml), and LPS (final concentration: 2 ng/ml) for 24 hours by a standard method. After culture, the concentrations of IL-6 and TNFα in the medium were measured by the ELISA method. In the Examples of the present application, the ELISA method was performed using a kit (Quantikine ELISA Mouse TNF-α or Quantikine ELISA Mouse IL-6, produced by R&D Systems). The results are shown in FIG. 1 (IL-6) and FIG. 2 (TNFα).
MHP1 was dissolved in water to a concentration of 2 mg/ml, and stored at 4° C. for 208 days. Thereafter, the proinflammatory cytokine secretion-inhibiting effect of this MHP1 was examined in the same manner as in Example 2, except that the final concentration of MHP1 was set to 100 μg/ml.

[3] = tested on: neuron-glia mixed culture; test: Neuronal cell death by LPS in neuron-glia mixed culture system (MAP2 staining); assay type: cell-based, mouse; details: B group; MHP1 50 μg/ml pretreatment, LPS 10 μg/ml, 5 days; FIG. 6
Procedure: Neuronal tissue (a mixture of neurons and glial cells) was removed from a mouse fetus 21 days after fertilization (21st fetal day), and cultured in Neurobasal medium (+B-27, +5% HS) for 9 days. Then, the cells were divided into 3 groups (A to C groups), and subjected to the following treatments.
The cells were cultured for 24 hours after the medium was changed to a medium (Neurobasal A/N2 supplement) containing MHP1 (final concentration: 50 μg/ml). Then, LPS (final concentration: 10 μg/ml) was added to the medium, and the cells were further cultured for 5 days. After culture, immunostaining was performed according to a general method using an antibody (M4403, produced by Sigma-Aldrich) against MAP2, which was a neuronal cell marker, as a primary antibody (primary antibody: 1/1000 dilution, and second antibody (A 11001, produced by Invitrogen): 1/1000 dilution). The staining images were observed, and the ratio of the area of the stained region (i.e., the region occupied by the survival neurons) to the culture dish area was calculated.

[4] = tested on: RANK knockdown RAW264.7 cells; test: RANK dependency: cytokine secretion in RANK knockdown cells; assay type: cell-based, mouse; details: for secretion of IL-6: FIG. 10; for secretion of TNFα: FIG. 11
Procedure: RAW264.7 cells were suspended in a DMEM medium (+10% FBS), seeded on a 24-well plate, and cultured at 37° C. at a CO2 concentration of 5%. To 100 μl of serum-free DMEM medium, 37.5 ng (final concentration: 5 nM) of siRNA against RANK (a double strand of the sequence represented by SEQ ID NO: 17 and the sequence represented by SEQ ID NO: 18, produced by GeneDesign) or 37.5 ng (final concentration: 5 nM) of control siRNA (a double strand of the sequence represented by SEQ ID NO: 19 and the sequence represented by SEQ ID NO: 20, produced by GeneDesign), and 3 μl of HiPerFect Transfection Reagent (QIAGEN) were added, and the resultant was allowed to stand at room temperature for 10 minutes. This was added to the RAW264.7 cell culture medium. After culture at 37° C. at a CO^2 concentration of 5% for 24 hours, the cells were collected. A protein extract was obtained from the cells by a standard method, and RANK in this extract was detected at a dilution concentration of 1/100 by the Western blotting method (anti-RANK antibody: anti-mRANK (Cat. No. AF692), produced by R&D Systems). […] FIG. 9 confirmed that RANK was knocked down by siRNA against RANK (comparison between lane 2 and lane 3).
MHP1 and LPS were made to act on RANK knockdown cells, as in Example 3, and the concentrations of IL-6 and TNFα in the medium were measured by the ELISA method. FIGS. 10 and 11 show the results.

MG6 cells [5] = test: Proinflammatory cytokine secretion inhibition, LPS-stimulated microglial cells (ELISA); assay type: cell-based, mouse; details: MG6 cells, peptide 50 or 100 μg/ml, LPS 2 ng/ml, 24 hours
Procedure: as §1
The proinflammatory cytokine secretion-inhibiting effect was examined in the same as in Example 2, except that the final concentration of MHP1 was set to 100 μg/ml, and that RANKL full-length protein was used at a final concentration of 10 ng/ml or 100 ng/ml as the comparison target.

[6] = RANK knockdown cells (siRNA against RANK)
[7] = control siRNA-introduced RAW264.7 cells

Which results are given for “LMVYVVKTSIKIPSSHNLMKGGSTKNWSGN (listed as Mus musculus) [MHP1]”?
differentiation of osteoclasts promoted by RANKL ([1]; M-CSF 50 ng/ml + RANKL protein 50 ng/ml + MHP1 30, 50 or 100 μg/ml, FIG. 13 (a)): inhibited; differentiation of osteoclasts by the substance itself ([1]; with M-CSF 50 ng/ml, MHP1 30, 50 or 100 μg/ml or RANKL protein 50 ng/ml, FIG. 13): did not occur; stability (MG6 cells [2]): high; proinflammatory cytokine secretion-inhibiting effect after long-term storage (MG6 cells [2]; tested at 100 μg/ml on MG6 cells, FIG. 18): exhibited a proinflammatory cytokine secretion-inhibiting effect; neuronal cell death by LPS [3]: suppressed; secretion of IL-6 [4, 6]: not inhibited; secretion of TNFα [4, 6]: not inhibited; secretion of IL-6 [4, 7]: inhibited; secretion of TNFα [4, 7]: inhibited; increase in the amount of IL-6 secretion by LPS (MG6 cells [5]; FIG. 1): suppressed; increase in the amount of TNFα secretion by LPS (MG6 cells [5]; FIG. 2): suppressed
